# Where “and” joins values, the source holds several entries; their conditions need not be identical. Equal entries are not always repeated.
# System: sEH
# Assay: oxylipin analysis, epoxide/diol ratios (target engagement)
# Assay type: in vivo, pig
# Parameters: 14,15-DiHETE: unit not given beside the values; 12,13-DiHOME / 9,10-DiHODE / 11,12-DiHETrE / 14,15-DiHETrE / 10,11-DiHDPE / 19,20-DiHDPE / 13-HODE / 5-HETE / 11-HETE / 12-HETE / 5-HEPE / 9(10)-EpOME / 12(13)-EpOME / EKODE / 11(12)-EpETE: unit not given here
# Conditions: for 9,10,13-TriHOME sample concentration / 9,12,13-TriHOME sample concentration: bad chromatography; for 14,15-DiHETE: high blanks
# Description: All animals were monitored with pulse oximetry, heart rate, ECG, systemic arterial blood pressure (ABP), pulmonary arterial pressure (PAP), central venous pressure (CVP) temperature, tidal volumes, respiratory rate and end tidal carbon dioxide. At baseline, and at 3 h, 6 h and at the end of the experiment, pulmonary capillary wedge pressure (PCWP) was measured together with arterial and venous blood gas analyses, as well as cardiac output calculations. Routine chemistry, including creatinine, bilirubin, glucose, electrolytes were collected at baseline and at the end of the experiment (Vetscan VS2®, Abaxis, Griesheim, Germany). Blood samples for measurement of AEPU plasma concentrations, as well as oxylipins (i.e., EpETrEs and their DiHETrE corresponding diols as well as related compounds with other polyunsaturated fatty acid precursors), were collected at baseline, 6 h and at the end of the experiment.
# This meant nine subjects in each group to achieve 90% power of detecting a difference of this size given α = 0.05. Anticipating that not all experiments would reach completion, we used a sample size of 22. The results were analyzed using SPSS Statistics, version 24 (IBM Corp., Armonk, N.Y., United States). Normality was examined with the Shapiro-Wilk test, together with examination of histograms of data. Continuous variables were compared using Student’s t-test or Mann Whitney U test, as appropriate. Categorical variables were compared using Fischer’s exact test. Statistical significance was set at α < 0.05. Oxylipins with at least 80% of observations above limit of detection at both timepoints were included in pairwise comparisons of ratios and fold-change evaluations where observations below limit of detection (LOD) were substituted with 0.5 x LOD.
# [1] = Time (h) 0, single pigs of sEH-i group
# [2] = Time (h) 6, single pigs of sEH-i group
# [3] = animal 20, time 6, sample Schwein36
# [4] = animal 22, time 0, sample Schwein37
# [5] = animal 22, time 6, sample Schwein38
smiles,measurement,setting,value
CCOCCOCCOCCCCCNC(=O)NC12CC3CC(CC(C3)C1)C2 [sEH-i],5(6)-EpETrE sample concentration,[1],<LOD
same,"5,6-DiHETrE sample concentration",[1],<LOD
same,7(8)-EpDPE sample concentration,[1],<LOD
same,"7,8-DiHDPE sample concentration",[1],<LOD
same,8(9)-EpETE sample concentration,[1],<LOD
same,8(9)-EpETrE sample concentration,[1],<LOD
same,"8,9-DiHETE sample concentration",[1],<LOD
same,9-HETE sample concentration,[1],<LOD
same,9-oxo-ODE sample concentration,[1],<LOD
same,10(11)-EpDPE sample concentration,[1],<LOD
same,11(12)-EpETE sample concentration,[1],0.1209 pmol/mL and 0.141 pmol/mL and 0.08872 pmol/mL
same,13(14)-EpDPE sample concentration,[1],<LOD
same,14(15)-EpETE sample concentration,[1],<LOD
same,15-HEPE sample concentration,[1],<LOD
same,16(17)-EpDPE sample concentration,[1],<LOD
same,17(18)-EpETE sample concentration,[1],<LOD
same,17-HDoHE sample concentration,[1],<LOD
same,19(20)-EpDPE sample concentration,[1],<LOD
same,LTB4 sample concentration,[1],<LOD
same,PGD2 sample concentration,[1],<LOD
same,PGE2 sample concentration,[1],<LOD
same,PGF2a sample concentration,[1],<LOD
same,Resolvin D1 sample concentration,[1],<LOD
same,Resolvin D2 sample concentration,[1],<LOD
same,TXB2 sample concentration,[1],0.17 pmol/mL and 0.31 pmol/mL
same,"9,10,13-TriHOME sample concentration",[1],4.78 pmol/mL and 2.75 pmol/mL and 3.27 pmol/mL
same,"9,12,13-TriHOME sample concentration",[1],<LOD
same,5(6)-EpETrE sample concentration,[2],<LOD
same,7(8)-EpDPE sample concentration,[2],<LOD
same,"7,8-DiHDPE sample concentration",[2],<LOD
same,8(9)-EpETE sample concentration,[2],<LOD
same,8(9)-EpETrE sample concentration,[2],<LOD
same,9-HETE sample concentration,[2],<LOD
same,9-oxo-ODE sample concentration,[2],<LOD
same,10(11)-EpDPE sample concentration,[2],<LOD
same,11(12)-EpETE sample concentration,[2],0.1453 pmol/mL and 0.09993 pmol/mL and 0.1012 pmol/mL
same,13(14)-EpDPE sample concentration,[2],<LOD
same,14(15)-EpETE sample concentration,[2],<LOD
same,15-HEPE sample concentration,[2],<LOD
same,16(17)-EpDPE sample concentration,[2],<LOD
same,17(18)-EpETE sample concentration,[2],<LOD
same,19(20)-EpDPE sample concentration,[2],<LOD
same,LTB4 sample concentration,[2],<LOD
same,PGD2 sample concentration,[2],<LOD
same,PGE2 sample concentration,[2],<LOD
same,Resolvin D1 sample concentration,[2],<LOD
same,Resolvin D2 sample concentration,[2],<LOD
same,TXB2 sample concentration,[2],1.20 pmol/mL and 2.15 pmol/mL and 2.09 pmol/mL
same,"9,10,13-TriHOME sample concentration",[2],4.27 pmol/mL and 3.59 pmol/mL and 2.73 pmol/mL
same,"9,12,13-TriHOME sample concentration",[2],<LOD
same,5(6)-EpETrE,[3],<LOD
same,"5,6-DiHETrE",[3],<LOD
same,5-HEPE,[3],<LOD
same,5-HETE,[3],<LOD
same,5-oxo-ETE,[3],0.05
same,7(8)-EpDPE,[3],<LOD
same,"7,8-DiHDPE",[3],<LOD
same,8(9)-EpETE,[3],<LOD
same,8(9)-EpETrE,[3],<LOD
same,"8,9-DiHETE",[3],<LOD
same,"8,9-DiHETrE",[3],0.0443
same,8-HETE,[3],0.0319
same,9(10)-EpODE,[3],<LOD
same,9(10)-EpOME,[3],0.34
same,"9,10,13-TriHOME",[3],6.77
same,"9,10-DiHODE",[3],0.0155
same,"9,10-DiHOME",[3],0.21
same,"9,12,13-TriHOME",[3],<LOD
same,9-HETE,[3],<LOD
same,9-HODE,[3],1.17
same,9-HOTrE,[3],0.2865
same,9-oxo-ODE,[3],<LOD
same,10(11)-EpDPE,[3],<LOD
same,"10,11-DiHDPE",[3],<LOD
same,11(12)-EpETE,[3],0.0834
same,11(12)-EpETrE,[3],0.0219
same,"11,12-DiHETE",[3],0.0228
same,"11,12-DiHETrE",[3],0.45
same,11-HETE,[3],0.12
same,12(13)-EpODE,[3],<LOD
same,12(13)-EpOME,[3],0.3027
same,"12,13-DiHODE",[3],<LOD
same,"12,13-DiHOME",[3],0.26
same,12-HEPE,[3],0.0122
same,12-HETE,[3],0.06381
same,12-oxo-ETE,[3],<LOD
same,13(14)-EpDPE,[3],<LOD
same,"13,14-DiHDPE",[3],0.04
same,13-HODE,[3],4.33
same,13-HOTrE,[3],<LOD
same,13-oxo-ODE,[3],<LOD
same,14(15)-EpETE,[3],<LOD
same,14(15)-EpETrE,[3],<LOD
same,"14,15-DiHETrE",[3],0.58
same,15(16)-EpODE,[3],0.25
same,"15,16-DiHODE",[3],2.37
same,15-HEPE,[3],<LOD
same,15-HETE,[3],0.23
same,15-HETrE,[3],0.10
same,15-oxo-ETE,[3],0.0224
same,16(17)-EpDPE,[3],<LOD
same,"16,17-DiHDPE",[3],0.0373
same,17(18)-EpETE,[3],<LOD
same,"17,18-DiHETE",[3],0.77
same,17-HDoHE,[3],<LOD
same,19(20)-EpDPE,[3],<LOD
same,"19,20-DiHDPE",[3],0.44
same,20-HETE,[3],0.0531
same,EKODE,[3],0.20
same,LTB4,[3],0.26
same,PGD2,[3],<LOD
same,PGE2,[3],<LOD
same,PGF2a,[3],0.69
same,Resolvin D1,[3],<LOD
same,Resolvin D2,[3],<LOD
same,TXB2,[3],2.57
same,"14,15-DiHETE",[3],0.2599
same,5(6)-EpETrE,[4],<LOD
same,"5,6-DiHETrE",[4],<LOD
same,5-HEPE,[4],0.21
same,5-HETE,[4],0.81
same,5-oxo-ETE,[4],0.30
same,7(8)-EpDPE,[4],<LOD
same,"7,8-DiHDPE",[4],<LOD
same,8(9)-EpETE,[4],<LOD
same,8(9)-EpETrE,[4],<LOD
same,"8,9-DiHETE",[4],0.0568
same,"8,9-DiHETrE",[4],0.11
same,8-HETE,[4],0.16
same,9(10)-EpODE,[4],0.39
same,9(10)-EpOME,[4],1.58
same,"9,10,13-TriHOME",[4],8.76
same,"9,10-DiHODE",[4],0.80
same,"9,10-DiHOME",[4],5.53
same,"9,12,13-TriHOME",[4],1.91
same,9-HETE,[4],<LOD
same,9-HODE,[4],22.28
same,9-HOTrE,[4],2.15
same,9-oxo-ODE,[4],<LOD
same,10(11)-EpDPE,[4],<LOD
same,"10,11-DiHDPE",[4],0.12
same,11(12)-EpETE,[4],0.09412
same,11(12)-EpETrE,[4],0.09
same,"11,12-DiHETE",[4],0.09
same,"11,12-DiHETrE",[4],1.52
same,11-HETE,[4],0.33
same,12(13)-EpODE,[4],0.93
same,12(13)-EpOME,[4],3.18
same,"12,13-DiHODE",[4],1.66
same,"12,13-DiHOME",[4],19.80
same,12-HEPE,[4],0.0755
same,12-HETE,[4],0.69
same,12-oxo-ETE,[4],4.85
same,13(14)-EpDPE,[4],<LOD
same,"13,14-DiHDPE",[4],0.22
same,13-HODE,[4],80.31
same,13-HOTrE,[4],4.84
same,13-oxo-ODE,[4],6.02
same,14(15)-EpETE,[4],<LOD
same,14(15)-EpETrE,[4],0.11
same,"14,15-DiHETrE",[4],3.44
same,15(16)-EpODE,[4],36.18
same,"15,16-DiHODE",[4],74.86
same,15-HEPE,[4],<LOD
same,15-HETE,[4],0.58
same,15-HETrE,[4],0.39
same,15-oxo-ETE,[4],0.15
same,16(17)-EpDPE,[4],<LOD
same,"16,17-DiHDPE",[4],0.63
same,17(18)-EpETE,[4],<LOD
same,"17,18-DiHETE",[4],3.51
same,17-HDoHE,[4],0.47
same,19(20)-EpDPE,[4],0.29
same,"19,20-DiHDPE",[4],4.63
same,20-HETE,[4],0.35
same,EKODE,[4],0.67
same,LTB4,[4],<LOD
same,PGD2,[4],0.04
same,PGE2,[4],0.0328
same,PGF2a,[4],0.19
same,Resolvin D1,[4],<LOD
same,Resolvin D2,[4],<LOD
same,TXB2,[4],0.22
same,"14,15-DiHETE",[4],0.2458
same,5(6)-EpETrE,[5],<LOD
same,"5,6-DiHETrE",[5],<LOD
same,5-HEPE,[5],0.03
same,5-HETE,[5],0.2075
same,5-oxo-ETE,[5],0.12
same,7(8)-EpDPE,[5],<LOD
same,"7,8-DiHDPE",[5],<LOD
same,8(9)-EpETE,[5],<LOD

# Reference: paper PMC12457078, “Inhibition of soluble epoxide hydrolase in endotoxin induced pig lung injury” (Frontiers in Pharmacology, 2025)
